Reference: ChEMBL document CHEMBL5727375, “Apoptosis signal-regulating kinase 1 inhibitors and methods of use thereof” (2019)

Molecular target: T1, Mitogen-activated protein kinase kinase kinase 5 (Homo sapiens, UniProt Q99683)
T1 sequence (Q99683 whole entry): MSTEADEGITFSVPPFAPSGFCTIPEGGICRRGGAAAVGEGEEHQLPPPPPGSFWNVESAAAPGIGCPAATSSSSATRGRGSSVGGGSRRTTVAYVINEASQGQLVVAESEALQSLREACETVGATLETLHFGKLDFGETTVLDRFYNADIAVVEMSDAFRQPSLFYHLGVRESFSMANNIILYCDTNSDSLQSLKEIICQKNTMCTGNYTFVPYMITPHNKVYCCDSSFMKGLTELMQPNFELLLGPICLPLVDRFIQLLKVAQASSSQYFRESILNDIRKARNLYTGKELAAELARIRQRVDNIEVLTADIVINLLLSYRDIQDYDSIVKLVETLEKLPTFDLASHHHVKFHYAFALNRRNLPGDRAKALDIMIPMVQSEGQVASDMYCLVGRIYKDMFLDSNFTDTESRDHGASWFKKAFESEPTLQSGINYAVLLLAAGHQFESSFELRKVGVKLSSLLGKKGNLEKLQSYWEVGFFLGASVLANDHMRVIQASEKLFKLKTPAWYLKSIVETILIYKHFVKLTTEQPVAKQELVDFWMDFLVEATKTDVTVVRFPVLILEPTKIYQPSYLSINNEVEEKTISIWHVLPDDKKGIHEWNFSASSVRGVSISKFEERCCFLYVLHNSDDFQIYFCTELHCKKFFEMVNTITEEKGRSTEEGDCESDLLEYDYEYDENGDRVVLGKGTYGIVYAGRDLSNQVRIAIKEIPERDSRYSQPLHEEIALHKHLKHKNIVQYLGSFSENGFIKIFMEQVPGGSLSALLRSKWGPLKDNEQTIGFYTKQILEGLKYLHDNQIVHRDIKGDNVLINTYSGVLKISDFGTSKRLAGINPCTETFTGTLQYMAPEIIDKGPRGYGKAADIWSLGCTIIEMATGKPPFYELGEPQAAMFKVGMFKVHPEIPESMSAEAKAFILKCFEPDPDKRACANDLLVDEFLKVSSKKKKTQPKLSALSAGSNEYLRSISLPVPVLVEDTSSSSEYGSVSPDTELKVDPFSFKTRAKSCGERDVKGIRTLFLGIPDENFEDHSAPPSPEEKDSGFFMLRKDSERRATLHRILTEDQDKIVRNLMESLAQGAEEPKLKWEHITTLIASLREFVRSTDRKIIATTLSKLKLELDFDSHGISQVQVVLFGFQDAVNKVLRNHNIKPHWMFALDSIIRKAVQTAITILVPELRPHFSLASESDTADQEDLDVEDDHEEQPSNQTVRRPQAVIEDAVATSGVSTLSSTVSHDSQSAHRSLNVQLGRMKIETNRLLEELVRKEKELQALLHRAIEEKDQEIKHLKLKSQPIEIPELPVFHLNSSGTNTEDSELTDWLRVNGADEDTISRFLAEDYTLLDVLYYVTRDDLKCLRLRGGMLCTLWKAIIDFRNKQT
Assay: HTRF KinEASE Assay : HTRF KinEASE-STK is a generic method for measuring serine/threonine kinase activities using a time-resolved fluorescence resonance energy transfer (TR-FRET) immunoassay. The IC50 value for each compound was determined in the presence of compound (various concentration from 0 to 10 μM) and a fixed amount of ATP and peptide substrates. The test compound, 1 Um STK3 peptide substrate, and 5 Nm of ASK1 kinase are incubated with kinase reaction buffer containing 50 Mm HEPES Ph 7.5, 0.01% BRIJ-35, 10 Mm MgCl2, and 1 Mm EGTA for 30 minutes. 100 Um ATP is added to start kinase reaction and incubated for 3 hours. The STK3-antibody labeled with Eu3+-Cryptate and 125 Nm streptavidin-XL665 are mixed in a single addition with stop reagents provided by the Cisbio kit used to stop the kinase reaction. Fluorescence is detected using an Envision Multilabeled 2014 reader from PerkinElmer. The Fluorescence is measured at 615 nm (Cryptate) and 665 nm (XL665) and a ratio of 665 nm/615 nm is calculated for each well.

CCOC(=O)N1Cc2cnc(C(=O)Nc3cccc(-c4nncn4C(C)C)n3)cc2C1 was tested, and the IC50 was 10 to 100 nM.
